The values below come from patent US7045528B2, “Benzofused heterozryl amide derivatives of thienopyridines useful as therapeutic agents, pharmaceutical compositions including the same, and methods for their use” (Agouron Pharmaceuticals, Inc., priority 2002, dated 2006).

Experiment [1] relates to human umbilical vein endothelial cells (HUVEC). In words: HUVEC+VEGF proliferation assay. The experiment is classed as cell-based. Particulars: Homo sapiens, HUVEC; VEGF 6 ng/mL, 72 h, MTT. Summed up: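 Exponentially growing passage 3–4 HUVEC were starved 24 h in F12K + 1% FBS, given compound (0.1% final DMSO) 1 h before 6 ng/mL final VEGF, then cultured 72 h. Proliferation was read as MTT dye reduction (4 h exposure), absorbance at 595 nm.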

In the next experiment the target is T1, PDGFRβ (Homo sapiens, UniProt P09619).
T1 construct: expressed in transfected cells; host or cells: porcine aorta endothelial (PAE)-PDGFRβ cells
T1 sequence (P09619 33-1106): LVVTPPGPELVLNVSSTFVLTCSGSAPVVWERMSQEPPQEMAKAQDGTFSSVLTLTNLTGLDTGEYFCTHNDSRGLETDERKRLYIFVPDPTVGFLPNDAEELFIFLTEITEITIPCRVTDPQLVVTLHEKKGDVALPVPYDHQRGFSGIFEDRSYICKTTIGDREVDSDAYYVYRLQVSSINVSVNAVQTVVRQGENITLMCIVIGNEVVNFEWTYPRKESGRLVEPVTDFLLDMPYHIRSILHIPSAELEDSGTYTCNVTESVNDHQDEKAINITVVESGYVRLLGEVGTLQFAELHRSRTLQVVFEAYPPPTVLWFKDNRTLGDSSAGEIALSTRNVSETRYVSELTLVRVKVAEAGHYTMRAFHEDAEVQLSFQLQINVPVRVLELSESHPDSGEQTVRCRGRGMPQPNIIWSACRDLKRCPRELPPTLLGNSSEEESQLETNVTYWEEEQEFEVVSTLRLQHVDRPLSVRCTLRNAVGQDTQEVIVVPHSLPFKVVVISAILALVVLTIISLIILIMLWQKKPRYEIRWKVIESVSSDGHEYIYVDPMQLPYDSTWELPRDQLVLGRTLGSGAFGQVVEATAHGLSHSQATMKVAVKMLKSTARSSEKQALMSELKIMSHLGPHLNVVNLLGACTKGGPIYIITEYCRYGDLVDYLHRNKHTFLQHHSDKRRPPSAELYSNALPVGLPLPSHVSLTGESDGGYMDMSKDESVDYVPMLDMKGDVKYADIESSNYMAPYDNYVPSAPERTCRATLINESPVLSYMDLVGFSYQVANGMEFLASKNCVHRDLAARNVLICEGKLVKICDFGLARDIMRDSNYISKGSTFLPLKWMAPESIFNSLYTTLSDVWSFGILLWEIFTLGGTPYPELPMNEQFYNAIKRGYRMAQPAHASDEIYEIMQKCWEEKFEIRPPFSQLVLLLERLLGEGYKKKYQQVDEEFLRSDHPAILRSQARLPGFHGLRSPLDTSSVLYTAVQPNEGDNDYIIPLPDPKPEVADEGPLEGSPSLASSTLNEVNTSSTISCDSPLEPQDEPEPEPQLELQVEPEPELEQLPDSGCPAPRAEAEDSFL
The experiment can be described thus: PAE-PDGFRβ phosphorylation in PAE-PDGFRB cells assay. The experiment is classed as cell-based. Particulars: PAE cells overexpressing human PDGFRβ, PDGF-BB stimulated; read-out: PAE PDGFR autophos IC50 (nM) AVG. Summed up:
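PAE cells overexpressing human PDGFRβ, serum-starved 16 h (0.1% FBS), were given compound for 1 h at 37 °C (0.5% DMSO) and then stimulated with 1 μg/mL PDGF-BB plus 2 mM Na3VO4 for 8 min. Receptor autophosphorylation was read by capture ELISA (HRP-PY20, TMB, 450 nm); IC50 from 4-parameter fit.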

Experiment [2] addresses T2, unphosphorylated VEGF-R2Δ50 (FLVK) (Homo sapiens, UniProt P35968, DEL940-989/E990V).
T2 construct: VEGF-R2Δ50 contains residues 806–939 and 990–1171; made in house; host or cells: baculovirus/insect cell system
In words: VEGF-R2 coupled spectrophotometric assay, unphosphorylated VEGF-R2Δ50 (FLVK). In kind it is biochemical. Particulars: unphosphorylated VEGF-R2Δ50; for inhibition at 0.05 µM: 50 nM compound, read-out: FLVK (% inh @ 50 nM). In short, it runs like this:
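Baculovirus-expressed human VEGF-R2Δ50 (kinase insert partly deleted, E990V), unphosphorylated form; ADP production coupled via PK/LDH to NADH oxidation, read at 340 nm. 20 mM poly(E4Y1), 3 mM ATP, 60 mM MgCl2, 2 mM MnCl2, 200 mM HEPES pH 7.5; 5–40 nM enzyme. Ki from Morrison tight-binding fit.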

T2 sequence (P35968 with tags, fused parts or gaps DEL940-989/E990V limits assumed): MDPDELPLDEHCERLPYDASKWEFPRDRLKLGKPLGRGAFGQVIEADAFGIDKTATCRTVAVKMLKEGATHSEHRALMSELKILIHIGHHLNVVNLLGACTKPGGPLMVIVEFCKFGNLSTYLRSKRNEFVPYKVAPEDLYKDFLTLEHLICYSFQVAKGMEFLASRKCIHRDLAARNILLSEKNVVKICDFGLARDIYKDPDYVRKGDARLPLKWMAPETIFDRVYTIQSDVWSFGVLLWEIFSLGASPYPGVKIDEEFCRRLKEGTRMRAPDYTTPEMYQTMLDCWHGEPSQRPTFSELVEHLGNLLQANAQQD

Broadly, the IC50 is the midpoint of a concentration-inhibition curve. The term Ki denotes a dissociation constant, usually derived from enzyme kinetics or from competition with a known ligand. Higher therefore signals a looser hold on the target. Take `CNC(=O)c1c(C)sc2cc(Oc3ccnc4cc(-c5nccn5C)sc34)ccc12` [Example 1, 2-methyl-6-(2-[1-methyl-1H-imidazol-2-yl]thieno[3,2-b]pyridin-7-yloxy)benzo[b]thiophene-3-carboxylic acid methylamide]: the IC50 in experiment [1] was found to be 0.68 nM; on PDGFRβ it was 164 nM. Moreover, the inhibition at 0.05 µM in experiment [2] was found to be 92%. The compound further returned a Ki in experiment [2] of 1.02 nM.
In the same order, the values of `CNC(=O)c1c(C)sc2cc(Oc3ccnc4cc(C(=O)N5CCC[C@H]5COC)sc34)ccc12` [Example 2, 6-(2-[(S)-2-(methoxymethyl)pyrrolidine-1-carbonyl]thieno[3,2-b]pyridin-7-yloxy)-2-methylbenzo[b]thiophene-3-carboxylic acid methylamide] are 2.3 nM, 912 nM, 75% and 4.14 nM.
In the case of `CNC(=O)c1c(C)sc2cc(Oc3ccnc4cc(C(=O)N5CCC[C@H]5CO)sc34)ccc12` [Example 3], the IC50 in experiment [1] came to 0.442 nM. The half-maximal inhibitory concentration (IC50) on PDGFRβ is 756 nM. For the same compound, in experiment [2], the inhibition at 0.05 µM was 59% and the Ki worked out at 0.811 nM.
Turning to `CNC(=O)c1c(C)sc2cc(Oc3ccnc4cc(C(=O)N5CC[C@@H](OC)C5)sc34)ccc12` [Example 4, 6-(2-[(R)-3-methoxypyrrolidine-1-carbonyl]thieno[3,2-b]pyridin-7-yloxy)-2-methylbenzo[b]thiophene-3-carboxylic acid methylamide], the IC50 in experiment [1] came to 0.404 nM. At PDGFRβ, the half-inhibitory concentration (IC50) amounted to 284 nM. Besides, in experiment [2], the inhibition at 0.05 µM came out at 88% and the Ki came out at 2.58 nM.
For `CNC(=O)c1c(C)sc2cc(Oc3ccnc4cc(C(=O)N5CC[C@@H](O)C5)sc34)ccc12` [Example 6, 6-(2-[(R)-3-hydroxypyrrolidine-1-carbonyl]thieno[3,2-b]pyridin-7-yloxy)-2-methylbenzo[b]thiophene-3-carboxylic acid methylamide], in that order: 1.2 nM, 255 nM, 94% and 0.721 nM.
In the same order, the values of `CNC(=O)c1c(C)oc2cc(Oc3ccnc4cc(C(=O)N5CC[C@@H](OC)C5)sc34)ccc12` [Example 12, 6-(2-[3-methoxypyrrolidine-1-carbonyl]thieno[3,2-b]pyridin-7-yloxy)-2-methylbenzofuran-3-carboxylic acid methylamide] are 0.26 nM, 14.4 nM, 100% and 0.314 nM.
With `CNC(=O)c1c(C)oc2cc(Oc3ccnc4cc(-c5nccn5C)sc34)ccc12` [Example 13], the results for the IC50 (in experiment [1]; at PDGFRβ) were 0.082 nM and 41 nM, respectively. Besides, the inhibition at 0.05 µM in experiment [2] is 97%. Further, in experiment [2], the Ki worked out at 0.322 nM.
In the same order, the values of `CNC(=O)c1c(C)n(C)c2cc(Oc3ccnc4cc(-c5nccn5C)sc34)ccc12` [Example 17, 1,2-dimethyl-6-(2-[1-methyl-1H-imidazol-2-yl]thieno[3,2-b]pyridin-7-yloxy)-1H-indole-3-carboxylic acid methylamide] are 1.2 nM, 20 nM, 77% and 2.77 nM.
Regarding `CNC(=O)c1c(C)n(C)c2cc(Oc3ccnc4cc(C(=O)N5CC[C@@H](OC)C5)sc34)ccc12` [Example 18, 1,2-dimethyl-6-(2-[3-methoxy-pyrrolidine-1-carbonyl]thieno[3,2-b]pyridin-7-yloxy)-1H-indole-3-carboxylic acid methylamide], the values for the half-maximal inhibitory concentration (IC50) (in experiment [1]; on PDGFRβ) were 0.64 nM and 32 nM, respectively. The inhibition at 0.05 µM in experiment [2] came to 78%. The compound also came in with a Ki in experiment [2] of 2.37 nM.
Take `CNC(=O)c1c(C)n(C)c2cc(Oc3ccnc4cc(C(=O)N5CC[C@@H](O)C5)sc34)ccc12` [Example 19, 1,2-dimethyl-6-(2-[3-hydroxy-pyrrolidine-1-carbonyl]thieno[3,2-b]pyridin-7-yloxy)-1H-indole-3-carboxylic acid methylamide]: the IC50 in experiment [1] amounted to 2.7 nM; on PDGFRβ, 172 nM. Moreover, in experiment [2], the inhibition at 0.05 µM stood at 75%. The compound further gave a Ki in experiment [2] of 2.63 nM.
Turning to `Cc1c(C(=O)NC2CC2)c2ccc(Oc3ccnc4cc(-c5nccn5C)sc34)cc2n1C` [Example 20, 1,2-Dimethyl-6-[2-(1-methyl-1H-imidazol-2-yl)-thieno[3,2-b]pyridin-7-yloxy]-1H-indole-3-carboxylic acid cyclopropylamide], the IC50 in experiment [1] was found to be 0.19 nM; at PDGFRβ, 43 nM. The inhibition at 0.05 µM in experiment [2] was 99%. For the same compound, the Ki in experiment [2] is 0.082 nM.
`CCCNC(=O)c1c(C)n(C)c2cc(Oc3ccnc4cc(-c5nccn5C)sc34)ccc12` [Example 61, 1,2-Dimethyl-6-[2-(1-methyl-1H-imidazol-2-yl)thieno[3,2-b]pyridin-7-yloxy]-1H-indole-3-carboxylic acid propylamide]: the results for the IC50 (in experiment [1]; on PDGFRβ) were 0.605 nM and 17.8 nM, respectively. Also, the inhibition at 0.05 µM in experiment [2] amounted to 89%.
`CCCCNC(=O)c1c(C)n(C)c2cc(Oc3ccnc4cc(-c5nccs5)sc34)ccc12` [Example 62, 1,2-Dimethyl-6-(2-thiazol-2-yl-thieno[3,2-b]pyridin-7-yloxy)-1H-indole-3-carboxylic acid butylamide]: in experiment [1], the IC50 worked out at 2.15 nM. Besides, at PDGFRβ, the IC50 was found to be 18.7 nM. For the same compound, in experiment [2], the inhibition at 0.05 µM was found to be 91% and the Ki was 0.57 nM.
